From patent US4962110A, “Pyridazinone derivatives” (Smith Kline & French Laboratories Limited, priority 1989, dated 1990)

How the values were obtained:
PDE (Peak III) = assay: Inhibition of phosphodiesterase PDE (Peak III) from cat heart; settings: read-out: IC50 PDE (Peak III); 1 μM cyclic AMP, 37°, pH 7.5
Experimental: (§1) The enzyme was assayed by incubation at 37° for 4-30 min in 50 mM Tris, 5 mM MgCl2, pH 7.5 with [3-H] cyclic nucleotide (4×10^5 disintegrations min^-1) and [14-C] nucleotide 5' monophosphate (3-10^3 disintegrations min^-1). The assay was stopped by boiling, and the [3-H] […] The reaction mixture was diluted with 0.5 ml 100 mM HEPES (N-2-Hydroxyethylpiperazine-N'-2-ethanesulfonic acid), 100 mM NaCl, pH 8.5, and applied to the column. […] The recovery of product as judged by [14-C] recovery was approximately 80%. All assays were linear with time of incubation and concentration of enzyme over the range used in these experiments.

PDE (Peak I) = assay: Characterisation of PDE (Peak I) from cat heart: substrate kinetics; assay type: biochemical
PDE (Peak II) = settings: in words
Experimental: as §1

[1] = tested on: right ventricular strips (force of contraction); assay: Cardiac stimulant activity in vitro: force of contraction of electrically stimulated guinea pig ventricular strips; set-up: species or system Guinea pigs; settings: Cavia porcellus, read-out: EC50 (50% increase in the force of contraction of the ventricular strips); guinea pig right ventricle strips, Krebs Henseleit, 37° C., 1.0 Hz, cumulative concentration response
Experimental: CARDIAC STIMULANT ACTIVITY--IN VITRO
The compounds of formula (I) and their pharmaceutically acceptable salts are tested for cardiac stimulant activity following a procedure based on that of S. C. Verma and J. H. McNeill (J. Pharm & Exp. Therapeutics, 200, 352-362 (1977)). Guinea pigs (500-700 g) of either sex are sacrificed and the hearts are quickly removed and transferred to a dissecting dish containing oxygenated bathing fluid. While in the bathing medium, the right ventricle is cut into two strips. The strips are each suspended in a 50 ml bath containing Krebs Henseleit solution at 37° C., and the bath is bubbled with 95% oxygen and 5% carbon dioxide. The ventricular strips are electrically stimulated at a frequency of 1.0 Hz, at double the threshold voltage. A resting tension of 1.0 g is applied to the strips and the tension is kept constant by readjustment during an equilibration period of 60 minutes. The bathing fluid is frequently changed during this period. When a steady base line is obtained, a compound under test is added to the bathing fluid and a cumulative concentration response curve is plotted.

IC50 (PDE (Peak III)) [nM] | Structure (SMILES) | other results
450 | Cc1cc(=O)nc(Nc2ccc(C3=NNC(=O)CC3C)cc2)[nH]1 (centres unmarked) [Example 2, 6-[4-(1,4-Dihydro-6-methyl-4-oxo-2-pyrimidinylamino)phenyl]-5-methyl-4,5-dihydro-3(2H)-pyridazinone] | 
1120 | Cc1c[nH]c(Nc2ccc(C3=NNC(=O)CC3C)cc2)nc1=O (centres unmarked) [Example 3, 6-[4-(1,4-Dihydro-5-methyl-4-oxo-2-pyrimidinylamino)-phenyl]-5-methyl-4,5-dihydro-3(2H)-pyridazinone] | 
150 | CC1CC(=O)NN=C1c1ccc(Nc2nc(=O)c3ccccc3[nH]2)cc1 (centres unmarked) [Example 4, 6-[4-(1,4-Dihydro-4-oxo-2-quinazolinylamino)phenyl]-5-methyl-4,5-dihydro-3(2H)-pyridazinone] | 

Further lines, the compound ahead of its results:

Structure (SMILES) | IC50 (PDE (Peak III)) [nM] | other results
Nc1nc2c(ncn2[C@@H]2O[C@@H]3COP(=O)(O)O[C@H]3[C@H]2O)c(=O)[nH]1 [cyclic GMP] |  | affinity (PDE (Peak I); in words): high affinity; Km (PDE (Peak I); with 50 μg/ml calmodulin): 1.4 µM; Relative Vmax (PDE (Peak I); with 50 μg/ml calmodulin): 7.2; affinity (PDE (Peak II)): relatively low affinities
Nc1cc(-c2ccncc2)c[nH]c1=O [Amrinone] | 51800 | 
CC1CC(=O)NN=C1c1ccc(Nc2nc(=O)cc[nH]2)cc1 (centres unmarked) [Example 1, 6-[4-(1,4-Dihydro-4-oxo-2-pyrimidinylamino)phenyl]-5-methyl-4,5-dihydro-3(2H)-pyridazinone] | 690 | EC50 [1]: 600 nM
Cc1[nH]c(=O)c(C#N)cc1-c1ccncc1 [Milrinone] | 2200 | 
